Data set [1] deals with Staphylococcus aureus. Kind of data set: Antibacterial activity against methicillin-resistant Staphylococcus aureus ATCC 33591 assessed as reduction in bacterial growth measured after 18 hrs by broth microdilution method. The format is functional. In general terms: In broth dilution the organism is exposed to a series of concentrations in liquid medium.
The subject of data set [2] is Staphylococcus aureus. Nature of the data set: Antibacterial activity against MDR-methicillin-resistant Staphylococcus aureus ATCC BAA-44 assessed as reduction in bacterial growth measured after 18 hrs by broth microdilution method. The class given is functional.
For data set [3], the system named is Staphylococcus epidermidis. Kind of data set: Antibacterial activity against Staphylococcus epidermidis ATCC 12228 assessed as reduction in bacterial growth measured after 18 hrs by broth microdilution method. The format is functional.
The test system of data set [4] is Staphylococcus aureus. Nature of the data set: Antibacterial activity against Staphylococcus aureus ATCC 25923 assessed as reduction in bacterial growth measured after 18 hrs by broth microdilution method. The format is functional.
For another data set, the system named is Pseudomonas aeruginosa. Kind of data set: Antibacterial activity against Pseudomonas aeruginosa ATCC BAA-427 assessed as reduction in bacterial growth measured after 18 hrs by broth microdilution method. The format is functional.
In a further data set the test system is Acinetobacter baumannii. Nature of the data set: Antibacterial activity against Acinetobacter baumannii i ATCC 19606 assessed as reduction in bacterial growth measured after 18 hrs by broth microdilution method. The format is functional.
The test system of data set [5] is Escherichia coli. Kind of data set: Antibacterial activity against Escherichia coli ATCC 25922 assessed as reduction in bacterial growth measured after 18 hrs by broth microdilution method. The class given is functional.
The subject of data set [6] is Staphylococcus epidermidis. Nature of the data set: Antibacterial activity against methicillin-resistant Staphylococcus epidermidis ATCC 51625 assessed as reduction in bacterial growth measured after 18 hrs by broth microdilution method. The class given is functional.
Data set [7] deals with Cell membrane. Kind of data set: Disruption of bacterial cell membrane in Escherichia coli ATCC 25922 assessed as proportion of bacteria with intact cell membrane at 5X MIC incubated for 1 hr by PI staining based flow cytometric analysis (reference value: 99.3%). The class given is subcellular. Background: In flow cytometry, cells or beads pass a laser one at a time.
Data set [8] relates to Cell membrane. Nature of the data set: Disruption of bacterial cell membrane in Escherichia coli ATCC 25922 assessed as proportion of bacteria with damaged cell membrane at 5X MIC incubated for 1 hr by PI staining based flow cytometric analysis (reference value: 0.7%). The class given is subcellular.
In data set [9] the test system is Cell membrane. Nature of the data set: Disruption of bacterial cell membrane in Escherichia coli ATCC 25922 at 5XMIC by SEM analysis. The class given is subcellular.
Data set [10] concerns Staphylococcus aureus. Nature of the data set: In vivo antibacterial activity against Staphylococcus aureus ATCC 25923 infected in BALB/c mouse model assessed as reduction of bacterial load in spleen at 100 mg/kg, ip administered as single dose measured after 24 hrs by colony counting based analysis. The format is functional, organism-based.
Data set [11] concerns Staphylococcus aureus. Nature of the data set: In vivo antibacterial activity against Staphylococcus aureus ATCC 25923 infected in BALB/c mouse model assessed as reduction of bacterial load in liver at 100 mg/kg, ip administered as single dose measured after 24 hrs by colony counting based analysis. The class given is functional, organism-based.
For data set [12], the system named is Staphylococcus aureus. Kind of data set: In vivo antibacterial activity against Staphylococcus aureus ATCC 25923 infected in BALB/c mouse model assessed as reduction of bacterial load in kidney at 100 mg/kg, ip administered as single dose measured after 24 hrs by colony counting based analysis. The format is functional, organism-based.
The test system of data set [13] is Escherichia coli. Nature of the data set: Antibacterial activity against Escherichia coli ATCC 25922 assessed as reduction in bacterial growth measured after 18 hrs in presence of 10% v/v human serum in MHB by broth microdilution method. To be noted: ATCC 25922, Serum. The format is functional.
The subject of another data set is Erythrocyte. Kind of data set: Hemolytic activity against human RBC assessed as hemolysis upto 100 uM incubated for 1 hr by ELISA plate reader analysis. The class given is toxicity, cell-based.
A short description of data set [14]: Cytotoxicity against human THP-1 cells assessed as cell viability at 50 uM by MTT assay. Conditions: read-out: Activity. The format is toxicity, cell-based. In general terms: Tetrazolium assays rely on reduction of a dye to a coloured formazan, in cell work by metabolically active cells.

In brackets after ≈: the same amount, converted by molar mass. Activity calls are given as the source filed them. The calls are words filed in the database; no cut-off is given here. Where a SMILES comes first, the peptide text is derived from it. The star is where a group is joined. Myristoyl = CCCCCCCCCCCCCC(=O)*; Decanoyl = CCCCCCCCCC(=O)*; Spermine = NCCCNCCCCNCCCN*

A word on the MIC: it is the least concentration at which growth counts as inhibited. Take `CCCCCCCCCC(=O)NCCCNCCCCNCCCN`: the MIC (in the data set with Staphylococcus aureus [1]; in the data set on Staphylococcus aureus [2]; in data set [3]; in the data set on Staphylococcus aureus [4]; in the data set on Pseudomonas aeruginosa; in the data set on Acinetobacter baumannii) was over 200 µM throughout. Besides, the MIC (in the data set on Escherichia coli [5]; in data set [6]) was over 200 µM throughout.
As for `CCCCCCCCCCCC(=O)NCCCNCCCCNCCCN`, the MIC (in the data set with Staphylococcus aureus [1]; in the data set with Staphylococcus aureus [2]; in data set [3]; with Staphylococcus aureus [4]; in the data set on Pseudomonas aeruginosa; with Acinetobacter baumannii) was over 200 µM throughout. The MIC (in the data set on Escherichia coli [5]; in [6]) was over 200 µM throughout.
Turning to `CC[C@H](C)[C@H](NC(=O)CN)C(=O)NCC(=O)N[C@@H](C)C(=O)N[C@H](C(=O)N[C@@H](CC(C)C)C(=O)N[C@@H](CCCCN)C(=O)N[C@H](C(=O)N[C@@H](CC(C)C)C(=O)N[C@H](C(=O)N[C@H](C(=O)NCC(=O)N[C@@H](CC(C)C)C(=O)N1CCC[C@H]1C(=O)N[C@@H](C)C(=O)N[C@@H](CC(C)C)C(=O)N[C@H](C(=O)N[C@@H](CO)C(=O)N[C@@H](Cc1c[nH]c2ccccc12)C(=O)N[C@H](C(=O)N[C@@H](CCCCN)C(=O)N[C@@H](CCCNC(=N)N)C(=O)N[C@@H](CCCCN)C(=O)N[C@@H](CCCNC(=N)N)C(=O)N[C@@H](CCC(N)=O)C(=O)N[C@@H](CCC(N)=O)C(N)=O)[C@@H](C)CC)[C@@H](C)CC)[C@@H](C)O)[C@@H](C)O)C(C)C)C(C)C`, the figures for the Activity in the data set with Cell membrane [7] and in the data set on Cell membrane [8] were 36% and 64%, respectively. Moreover, the result in the data set on Cell membrane [9] was Active.
As for `C[C@H]1COc2c(N3CCN(C)CC3)c(F)cc3c(=O)c(C(=O)O)cn1c23`, the result in the data set on Staphylococcus aureus [10], in the data set with Staphylococcus aureus [11] and in the data set on Staphylococcus aureus [12] was Active.
Regarding `CCCCCCCCCC(=O)N1CCC[C@H]1C(=O)N[C@@H](CCCNC(=N)N)C(=O)N1CCC[C@H]1C(=O)N[C@@H](CCCNC(=N)N)C(=O)N1CCC[C@H]1C(=O)N1CCC[C@H]1C(=O)N[C@@H](CCCNC(=N)N)C(=O)O` (Decanoyl-PRPRPPR-OH), the MIC (in the data set with Staphylococcus aureus [1]; in the data set with Staphylococcus aureus [2]; in data set [3]; with Staphylococcus aureus [4]; in the data set with Pseudomonas aeruginosa; in the data set on Acinetobacter baumannii) was over 200 µM in each case. Moreover, the MIC (in the data set with Escherichia coli [5]; in data set [6]) was over 200 µM throughout.
`N=C(N)NCCC[C@H](NC(=O)[C@@H]1CCCN1C(=O)[C@@H]1CCCN1C(=O)[C@H](CCCNC(=N)N)NC(=O)[C@@H]1CCCN1C(=O)[C@H](CCCNC(=N)N)NC(=O)[C@@H]1CCCN1)C(=O)NCCCNCCCCNCCCN` (H-PRPRPPR-Spermine): the MIC in the data set with Staphylococcus aureus [1] is over 200 µM; in the data set on Staphylococcus aureus [2], over 200 µM; in data set [3], over 200 µM; in the data set on Staphylococcus aureus [4], 200 µM (≈ 212 µg/mL); in the data set with Pseudomonas aeruginosa, over 200 µM; with Acinetobacter baumannii it was over 200 µM. Besides, the MIC (with Escherichia coli [5]; in data set [6]) was over 200 µM in each case.
As to `CCCCCCCCCCCCCC(=O)N1CCC[C@H]1C(=O)N[C@@H](CCCNC(=N)N)C(=O)N1CCC[C@H]1C(=O)N[C@@H](CCCNC(=N)N)C(=O)N1CCC[C@H]1C(=O)N1CCC[C@H]1C(=O)N[C@@H](CCCNC(=N)N)C(=O)NCCCNCCCCNCCCN` (Myristoyl-PRPRPPR-Spermine), the MIC in the data set with Staphylococcus aureus [1] is 1.5 µM (≈ 1.9 µg/mL); in the data set with Staphylococcus aureus [2] it was 1.5 µM (≈ 1.9 µg/mL); in data set [3], 1.5 µM (≈ 1.9 µg/mL); in the data set on Staphylococcus aureus [4], 3.1 µM (≈ 3.94 µg/mL); in the data set with Pseudomonas aeruginosa, 6.2 µM (≈ 7.87 µg/mL); in the data set with Escherichia coli [13] it was 3.1 µM. For the same compound, the MIC with Acinetobacter baumannii came out at 6.2 µM (≈ 7.87 µg/mL); in the data set on Escherichia coli [5], 3.1 µM (≈ 3.94 µg/mL); in [6] it was 1.5 µM (≈ 1.9 µg/mL). Besides, the Activity result in the data set on Erythrocyte was “Toxic”. The viability at 50 µM in data set [14] stood at 40%.
Consider `CC1(C)S[C@@H]2[C@H](NC(=O)[C@H](N)c3ccccc3)C(=O)N2[C@H]1C(=O)O` [AMPICILLIN], for which the minimum inhibitory concentration (MIC) in the data set with Staphylococcus aureus [2] is 125 µM (≈ 43.7 µg/mL).
Turning to `O=C(N[C@H](CO)[C@H](O)c1ccc([N+](=O)[O-])cc1)C(Cl)Cl` [CHLORAMPHENICOL], in the data set on Staphylococcus aureus [2], the MIC was 1000 µM (≈ 323 µg/mL).
`NC[C@@H]1O[C@H](O[C@H]2[C@@H](O)[C@H](O[C@@H]3[C@@H](O)[C@H](N)C[C@H](N)[C@H]3O[C@H]3O[C@H](CN)[C@@H](O)[C@H](O)[C@H]3N)O[C@@H]2CO)[C@H](N)[C@@H](O)[C@@H]1O` [FRAMYCETIN]: the MIC with Staphylococcus aureus [2] is 125 µM (≈ 76.8 µg/mL).
Still for that read-out and setting: in the case of `CO[C@H]1/C=C/O[C@@]2(C)Oc3c(C)c(O)c4c(O)c(c(/C=N/N5CCN(C)CC5)c(O)c4c3C2=O)NC(=O)/C(C)=C\C=C\[C@H](C)[C@H](O)[C@@H](C)[C@@H](O)[C@@H](C)[C@H](OC(C)=O)[C@@H]1C` [RIFAMPIN] it was 1.25 µM (≈ 1.03 µg/mL); in that of `CN(C)[C@@H]1C(O)=C(C(N)=O)C(=O)[C@@]2(O)C(O)=C3C(=O)c4c(O)cccc4[C@@](C)(O)[C@H]3C[C@@H]12` [TETRACYCLINE], 62.5 µM (≈ 27.8 µg/mL).
With `CN[C@H](CC(C)C)C(=O)N[C@H]1C(=O)N[C@@H](CC(N)=O)C(=O)N[C@H]2C(=O)N[C@H]3C(=O)N[C@H](C(=O)N[C@H](C(=O)O)c4cc(O)cc(O)c4-c4cc3ccc4O)[C@H](O)c3ccc(c(Cl)c3)Oc3cc2cc(c3O[C@@H]2O[C@H](CO)[C@@H](O)[C@H](O)[C@H]2O[C@H]2C[C@](C)(N)[C@H](O)[C@H](C)O2)Oc2ccc(cc2Cl)[C@H]1O` [VANCOMYCIN], the MIC stood at 0.8 µM (≈ 1.16 µg/mL) in the data set with Staphylococcus aureus [1]; 0.8 µM (≈ 1.16 µg/mL) in the data set on Staphylococcus aureus [2]; 0.4 µM (≈ 0.58 µg/mL) in [3]; 0.4 µM (≈ 0.58 µg/mL) in the data set with Staphylococcus aureus [4]; 56.8 µM (≈ 82.3 µg/mL) in the data set on Acinetobacter baumannii; 200 µM (≈ 290 µg/mL) in the data set on Escherichia coli [5]. The minimum inhibitory concentration (MIC) in [6] amounted to 0.8 µM (≈ 1.16 µg/mL).
With GENTAMICIN, in the data set with Staphylococcus aureus [2], the MIC was 2.5 µM.
As to H-PRPRPPR-OH, the MIC (in the data set with Staphylococcus aureus [1]; in the data set with Staphylococcus aureus [2]; in data set [3]; with Staphylococcus aureus [4]; in the data set on Pseudomonas aeruginosa; in the data set on Acinetobacter baumannii) was over 200 µM throughout. Besides, the MIC (in the data set on Escherichia coli [5]; in data set [6]) was over 200 µM in each case.

These data come from ChEMBL document CHEMBL5154803, “Spermine-Conjugated Short Proline-Rich Lipopeptides as Broad-Spectrum Intracellular Targeting Antibacterial Agents” (J Med Chem, 2022).
